Measured values from US20260049079A1, “CHIRAL SYNTHESIS OF FUSED BICYCLIC RAF INHIBITORS” (Jazz Pharmaceuticals Ireland Limited, priority 2020, published 2026).
≈ marks a conversion by molar mass, not a printed value. Where two headings read alike, the source gives them in different places.

Tests used:
[1] = Hepatocyte Stability Assay (HLH); assay type: in vitro ADME; conditions: human hepatocytes, 0.5×10^6 cells/mL, 1 μM compound, 37° C.
Description: (§1) Hepatocyte Stability Assay
(§2) Hepatocyte stability studies were performed manually using the substrate depletion approach. Compounds were incubated at 37° C. with cryo-preserved mouse (Bioreclamation) or human (Corning) hepatocytes at a cell density of 0.5×10^6 cells/mL and a final compound concentration of 1 μM. Sampling was performed at defined timepoints and the reaction was terminated by adding to ice-cold organic solvent. Compound concentrations were determined by LC-MS/MS analysis. The natural log of the percentage of compound remaining was plotted against each time point and the slope determined. The half-life (t1/2) and CLint were calculated using Equations 1 and 3, respectively. Data analysis was performed using Excel (Microsoft, USA).
(§3) HLH (human liver hepatocytes) and MLH (mouse liver heptaocytes) stability assay results are described in Table 34C.

[2] = Hepatocyte Stability Assay (MLH); assay type: in vitro ADME; conditions: mouse hepatocytes, 0.5×10^6 cells/mL, 1 μM compound, 37° C.
Description: as §1, §2, §3

[3] = test system: constitutive ERK phosphorylation in HCT-116 cells (KRAS G13D); test: HCT-116 AlphaLISA SureFire pERK1/2 Cellular Assay; assay type: cell-based; conditions: Homo sapiens
Description: HCT-116 AlphaLISA SureFire pERK1/2 Cellular Assay
(§4) The human HCT-116 colorectal carcinoma cell line (ATCC CCL-247) endogenously expresses the KRAS^G13D mutation, which leads to constitutive activation of the MAP kinase pathway and phosphorylation of ERK. […] Assay read outs took place 2 or 24 hours after dosing with compounds. On the first day, HCT-116 cells were harvested, resuspended in growth medium (McCoys5A with Glutamax (Life Technologies 36600021) and 10% heat-inactivated fetal bovine serum (Sigma F9665)), and counted. Cells were plated in 100 μl per well in each well of a 96-well culture dish (Sigma CLS3598) to a final density of 30,000 (2 hr read) or 15,000 (24 hr read) cells per well and incubated over night at 37° C. and 5% CO2. On day 2, the growth medium was exchanged for dosing medium (McCoys5A with Glutamax (Life Technologies 36600021) and 1% heat-inactivated fetal bovine serum (Sigma F9665)) and the cells were dosed with compounds to produce a 10-point dose response, where the top concentration was 1 μM and subsequent concentrations were at ⅓ log dilution intervals. A matched DMSO control was included. The cells were subsequently incubated for either 2 or 24 hours at 37° C. and 5% CO2. After incubation, media was removed and the cells were incubated with lysis buffer containing phosphatase inhibitors for 15 minutes at room temperature. Cell lysates were transferred to a ½ area 96 well white Optiplate™ (Perkin Elmer 6005569) and incubated with anti-mouse IgG acceptor beads, a biotinylated anti-ERK1/2 rabbit antibody recognizing both phosphorylated and non-phosphorylated ERK1/2, a mouse antibody targeted to the Thr202/Tyr204 epitope and recognizing phosphorylated ERK proteins only, and streptavidin-coated donor beads. The biotinylated antibody binds to the streptavidin-coated donor beads and the phopsho-ERK1/2 antibody binds to the acceptor beads. Plates were read on an EnVision reader (Perkin Elmer) and excitation of the beads at 680 nm with a laser induced the release of singlet oxygen molecules from the donor beads that trigger energy transfer to the acceptor beads in close proximity, producing a signal that can be measured at […]. Both antibodies bound to phosphorylated ERK proteins, bringing the donor and acceptor beads into close proximity. All data were analyzed using the Dotmatics or GraphPad Prism software packages. Inhibition of ERK phosphorylation was assessed by determination of the absolute IC50 value, which is defined as the concentration of compound required to decrease the level of phosphorylated ERK proteins by 50% when compared to DMSO control.

[4] = test system: constitutive ERK phosphorylation in WiDr cells (BRAF V600E); test: WiDr AlphaLISA SureFire pERK1/2 Cellular Assay; assay type: cell-based; conditions: Homo sapiens
Description: [Worded in the source for another cell line; used here, by the source, with some conditions changed.] as §4
WiDr AlphaLISA SureFire pERK1/2 Cellular Assay […]

[5] = Microsomal Stability Assay (MLM); assay type: in vitro ADME; conditions: mouse liver microsomes, 0.5 mg/mL protein, 1 μM compound, 37° C.
Description: (§5) Microsomal Stability Assay
(§6) The stability studies were performed manually using the substrate depletion approach. Test compounds were incubated at 37° C. with cryo-preserved mouse or human liver microsomes (Corning) at a protein concentration of 0.5 mg·mL^−1 and a final substrate concentration of 1 μM. Aliquots were removed from the incubation at defined timepoints and the reaction was terminated by adding to ice-cold organic solvent. Compound concentrations were determined by LC-MS/MS analysis. The natural log of the percentage of compound remaining was plotted against each time point and the slope determined. The half-life (t1/2) and CLint were calculated using Equations 1 and 2, respectively. Data analysis was performed using Excel (Microsoft, USA).
(§7) HLM (human liver microsomes) and MLM (mouse liver microsomes) stability assay results are described in Table 34C.

[6] = Microsomal Stability Assay (HLM); assay type: in vitro ADME; conditions: human liver microsomes, 0.5 mg/mL protein, 1 μM compound, 37° C.
Description: as §5, §6, §7

[7] = Plasma Protein Binding Assay (hPPB); assay type: in vitro ADME; conditions: human plasma, equilibrium dialysis, 5 μM, 4 hours, 37° C.
Description: (§8) Plasma Protein Binding Assay
(§9) The plasma protein binding was determined by the equilibrium dialysis method. A known concentration of compound (5 μM) in previously frozen human or mouse plasma (Sera Labs) was dialysed against phosphate buffer using a RED device (Life Technologies) for 4 hours at 37° C. The concentration of compound in the protein containing (PC) and protein free (PF) sides of the dialysis membrane were determined by LC-MS/MS and the % free compound was determined by equation 4. Data analysis was performed using Excel (Microsoft, USA).
(§10) hPPB (human plasma protein binding) and mPPB (mouse plasma protein binding) results are described in Table 34D.

WiDr cells = test: WiDr CellTiter-Glo 3D Cell Proliferation Assay; assay type: cell-based; conditions: Homo sapiens, WiDr spheroids, read-out: 3D WiDr pGI50 (converted)
Description: The CellTitre Glo® reagent lyses the cells and contains luciferin and a luciferase (Ultra-Glo™ Recombinant Luciferase), which in the presence of ATP and oxygen can produce bioluminescence from luciferin. Therefore, plates were read on an EnVision reader (Perkin Elmer) and luminescence signals were recorded. Cell proliferation was determined on 4 days after dosing relative to the pre-treatment read. All data were analyzed using the Dotmatics or GraphPad Prism software packages. Inhibition of proliferation was assessed by determination of the GIso value, which was defined as the concentration of compound required to decrease the level of cell proliferation by 50% when compared to DMSO control.
The human WiDr colorectal adenocarcinoma cell line (ATCC CCL-218) endogenously expresses the BRAF^V600E mutation, which leads to enhanced survival and proliferative signaling.

[8] = test system: BRAF monomers in A375 cells (BRAF V600E, pERK); test: A375 AlphaLISA SureFire pERK1/2 Cellular Assay (Monomer); assay type: cell-based; conditions: Homo sapiens
Description: [Worded in the source for another cell line; used here, by the source, with some conditions changed.] as §4
A375 AlphaLISA SureFire pERK1/2 Cellular Assay (Monomer) […]

[9] = Plasma Protein Binding Assay (mPPB); assay type: in vitro ADME; conditions: mouse plasma, equilibrium dialysis, 5 μM, 4 hours, 37° C.
Description: as §8, §9, §10

FeSSIF Solubility Assay = assay type: physicochemical; conditions: fed state simulated intestinal fluid (FeSSIF), thermodynamic from solid, pH 5 acetate buffer, 37° C., read-out: FESSIF sol
Description: 1 mL of fed state simulated intestinal fluid (FeSSIF), prepared using FaSSIF/FeSSIF/FaSSGF powder (Biorelevant.com) and pH 5 acetate buffer, was added to 1.0 mg of compound and then incubated for 24 h (Bioshake iQ, 650 rpm, 37° C.). Following filtration under positive pressure, the concentration of compound in solution was assessed by LC-UV in comparison to the response for a calibration standard of known concentration (250 μM). FeSSIF solubility results are described in Table 34D.

[10] = test system: RAF dimers in HCT-116 cells (Encorafenib-induced pERK signalling); test: HCT-116 AlphaLISA SureFire pERK1/2 Cellular Assay (Dimer); assay type: cell-based; conditions: Homo sapiens
Description: as §4
HCT-116 AlphaLISA SureFire pERK1/2 Cellular Assay (Dimer) […]

HCT-116 cells = test: HCT-116 CellTiter-Glo 3D Cell Proliferation Assay; assay type: cell-based; conditions: Homo sapiens, HCT116 spheroids, read-out: 3D HCT116 pGI50 (converted)
Description: HCT-116 CellTiter-Glo 3D) Cell Proliferation Assay
On the first day, HCT-116 cells were harvested, resuspended in growth medium (McCoys5A with Glutamax (Life Technologies 36600021) with 10% heat-inactivated fetal bovine serum (Sigma F9665)), and counted. Cells were plated in 100 μl per well in each well of a Corning 7007 96-well clear round bottom Ultra-Low Attachment plate (VWR 444-1020) to a final density of 1000 cells per well. Cells were seeded for pre- and post-treatment readouts. The cells were then incubated at 37° C. and 5% CO2 for 3 days (72 hours) to allow spheroid formation. After 72 hours, the plate seeded for a pre-treatment read was removed from the incubator to allow equilibration to room temperature for 30 minutes, before CellTitre-Glo® reagent was added to each well. The plates were incubated at room temperature for 5 minutes shaking at 300 rpm, followed by an incubation of 25 minutes on the benchtop before being read on the Envision reader (Perkin Elmer) as described below. On the same day, the cells plated for the post-treatment readout were dosed with compounds to produce a 9-point dose response, where the top concentration was 15 M and following concentrations were at ½ log dilution intervals. […] Therefore, plates were read on an EnVision reader (Perkin Elmer) and luminescence signals were recorded. […]

[11] = HCT-116, 2 h, read-out: PERK HCT116 (2 hr) Abs plC50
[12] = HCT-116, 24 h, read-out: pERK HCT116 (24 hr) Abs plC50
[13] = WiDr, 2 h, read-out: PERK WiDr (2 hr) Abs plC50
[14] = A-375, 1 h, read-out: PERK A375 mono (1 hr) plC50
[15] = HCT-116, 1 h, read-out: PERK HCT116 dimer (1 hr) plC50

| Structure (SMILES) | hepatocyte CLint at 1 µM [1] [µL/min/1e6 cells] | hepatocyte CLint at 1 µM [2] [µL/min/1e6 cells] | IC50 [3, 11] [nM] | IC50 [3, 12] [nM] | IC50 [4, 13] [nM] | microsomal CLint at 1 µM [5] [µL/min/mg] | microsomal CLint at 1 µM [6] [µL/min/mg] | hPPB (% free) [7] [% free] | GI50 (WiDr cells) [nM] | IC50 [8, 14] [nM] | mPPB (% free) [9] [% free] | solubility thermodynamic at 24 h (FeSSIF Solubility Assay) [µg/mL] | IC50 [10, 15] [nM] | GI50 (HCT-116 cells) [nM] | IC50 ([3]; HCT-116, HCT116 cells, 2 hr, absolute pIC50, read-out: PERK HCT116 (2 hr) Abs plC50 (converted)) [nM] | IC50 ([3]; HCT-116, HCT116 cells, 24 hr, absolute pIC50, read-out: pERK HCT116 (24 hr) Abs plC50 (converted)) [nM] | IC50 ([4]; WiDr cells, 2 hr, absolute pIC50, read-out: PERK WiDr (2 hr) Abs plC50 (converted)) [nM] | IC50 ([8]; A-375, A375 cells, BRAF monomer, 1 hr incubation, read-out: PERK A375 mono (1 hr) plC50 (converted)) [nM] | IC50 ([10]; HCT-116, HCT116 cells, RAF dimer, 1 hr, read-out: PERK HCT116 dimer (1 hr) plC50 (converted)) [nM] |
| --- | --- | --- | --- | --- | --- | --- | --- | --- | --- | --- | --- | --- | --- | --- | --- | --- | --- | --- | --- |
| O=C1CCc2c(Oc3ccc4c(c3)C[C@@H](c3nc(-c5ccc(F)cc5)c[nH]3)CO4)ccnc2N1 (single isomer, unassigned) [Compound A-1] | 26.8 | 11 | 49 | 95.5 | 45.7 | 16 | 21.7 | 0.5 | 52.5 | 30.9 | 0.8 | 9.9 (≈ 21.7 µM) | 40.7 | 40.7 |  |  |  |  |  |
| O=C1CCc2c(Oc3ccc4c(c3)CC(c3ncc(-c5ccc(F)cc5)[nH]3)CO4)ccnc2N1 (racemic) [A-rac] | 4.6 | 23.4 | 74.1 | 87.1 | 56.2 | 30.6 | 26.9 | 0.5 |  | 55 | 1.8 |  | 49 |  |  |  |  |  |  |
| O=C1CCc2c(Oc3ccc4c(c3)C[C@H](c3nc(-c5ccc(F)cc5)c[nH]3)CO4)ccnc2N1 (single isomer, unassigned) [Compound A-2] | 11.4 | 12.5 | 69.2 | 115 | 162 | 80.1 | 11.8 | 0.7 | 537 | 275 | 0.9 | 9.4 (≈ 20.6 µM) | 35.5 | 263 |  |  |  |  |  |
| O=C1CCc2c(Oc3ccc4c(c3)CC(c3nc(-c5cccs5)c[nH]3)CO4)ccnc2N1 (racemic) [B-rac] | 11.5 |  |  |  |  | 58.8 | 60.1 | 0.7 |  |  | 0.7 |  |  |  | 19.1 | 24 | 44.7 | 49 | 28.2 |
